Entries after “also recorded” stand apart in the source; their conditions may differ. Read-outs that look alike come from different tables or passages of the source.
How the values were obtained:
hiPSO-derived IECs [1] = test: Cell viability of dispersed hiPSO-derived IECs (CellTiter-Glo 3D); conditions: for toxicity against IECs (cell viability): indicated doses, dispersed hiPSO-derived IECs, Fig. 5A, B; for effect of kinase inhibitor on dose-dependent cytotoxicity induced by YC-1: 10 µM inhibitor with 0-30 µM YC-1, 48 h, Fig. 6A-C; for IEC-selective dose-dependent cytotoxicity: dose-dependent analysis, dispersed IECs from hiPSOs and hPIOs versus Caco-2 cells, Fig. 4D
hiPSO-derived IECs [2] = system: hiPSO-derived IECs
Caco-2 cells = test: Cell viability of Caco-2 cells (CellTiter-Glo 3D), counter-assay; format: cell-based, human; conditions: dose-dependent analysis, Fig. 4D
[3] = system: CCND1 and VIL1 mRNA in hiPSO-derived IECs; test: qRT-PCR of mRNA levels in hiPSO-derived IECs; format: cell-based, human; conditions: 0, 1, 10 µM, 48 h, Fig. 5E
Procedure: Total cellular RNA was extracted using RNeasy Mini Kit (Qiagen). Reverse transcription was performed using a high-capacity cDNA Reverse Transcription Kit (Thermo Fisher Scientific). The mRNA levels were measured by fluorescence real-time PCR on StepOnePlus (Thermo Fisher Scientific) using PrimeTime qPCR Probes (Integrated DNA Technologies). The 18S rRNA levels were used as an internal control to normalize the mRNA levels of each gene.

[4] = system: caspase-8, RIP1, caspase-3, PARP, XIAP in hiPSO-derived IECs; test: Western blot analysis of apoptotic proteins in hiPSO-derived IECs; format: cell-based, human; conditions: 0, 1, 10 µM, 14 h, Fig. 5D
Procedure: After the preparation of lysis buffer [50 mM Tris-HCl (pH 8.0), 150 mM NaCl, 1% Triton X-100, 0.5% deoxycholate, 0.1% sodium dodecyl sulfate (SDS), and a protease inhibitor cocktail (Nacalai Tesque)], cell lysates were subjected to SDS-polyacrylamide gel electrophoresis and transferred onto a polyvinylidene difluoride membrane. The membrane was blocked with Blocking One (Nacalai Tesque) for 1 h at room temperature (RT), incubated overnight at 4 °C with primary antibodies against caspase-3 (1:1000), caspase-8 (1:1000), PARP (1:1000), RIP1 (1:1000), XIAP (1:100), and β-actin (1:200), and incubated with secondary antibodies for 1 h at RT. Chemiluminescent signals were determined using Fusion Solo S (Vilber). A pre-stained ladder protein marker (XL-Ladder Broad, APRO Science) that was not visible as a chemiluminescent signal was used to determine the position of molecular weights. Full-scan images were represented in the Supplementary Information.

hPIO-derived IECs = test: Cell viability of dispersed hPIO-derived IECs (CellTiter-Glo 3D); conditions: 1 µM, 48 h, dispersed IECs of hPIOs, Fig. 4A

## CS(=O)(=O)c1ccc(Oc2cc(F)cc(C#N)c2)c2c1[C@H](O)C(F)(F)C2 [PT-2385]
hiPSO-derived IECs [1]; 48 h
  toxicity against IECs (cell viability): little toxicity

## C[S+]([O-])c1ccc(-c2nc(-c3ccncc3)c(-c3ccc(F)cc3)[nH]2)cc1 (stereo not drawn) [SB203580]
hiPSO-derived IECs [1]
  effect of kinase inhibitor on dose-dependent cytotoxicity induced by YC-1: almost no effect

## CCCCCCCC/C=C\CCCCCCCC(=O)NCCc1ccc(O)c(O)c1 [N-oleoyldopamine]
hiPSO-derived IECs [2]
  IEC-selective dose-dependent cytotoxicity: identified

## COC(=O)Nc1c(N)nc(-c2nn(Cc3ccccc3F)c3ncc(F)cc23)nc1N [vericiguat]
hiPSO-derived IECs [1]; 48 h
  toxicity against IECs (cell viability): little toxicity

## CC1=C(/C=C/C(C)=C/C=C/C(C)=C/C(=O)Nc2ccc(O)cc2)C(C)(C)CCC1 [4-HPR, N-(4-hydroxyphenyl)retinamide]
hiPSO-derived IECs [1]
  IEC-selective dose-dependent cytotoxicity: identified

## Oc1c2ccccc2c2c3c(cccc13)N=N2 [SP600125]
hiPSO-derived IECs [1]
  effect of kinase inhibitor on dose-dependent cytotoxicity induced by YC-1: almost no effect

## OCc1ccc(-c2nn(Cc3ccccc3)c3ccccc23)o1 [YC-1, 3-(5′-hydroxymethyl-2′-furyl)-1-benzyl indazole]
Caco-2 cells
  cytotoxicity against Caco-2 cells: least cytotoxicity; also recorded: very little
[3]
  CCND1 mRNA levels: downregulated
  VIL1 mRNA levels: downregulated
[4]
  anti-apoptotic protein XIAP level: decreased
  cleavage of caspase-8, RIP1, caspase-3 and PARP: dose-dependently induced the cleavage
hiPSO-derived IECs [2]
  IEC-selective dose-dependent cytotoxicity: identified
  cytotoxicity against IECs: significant cytotoxicity

## COc1cccc(-c2cc(=O)c3ccccc3o2)c1N [PD98059]
hiPSO-derived IECs [1]; 0-30 µM PD98059 with 1 µM YC-1, 48 h, Fig. 6D
  inhibition of cytotoxicity of 1 µM YC-1: in a dose-dependent manner
hiPSO-derived IECs [1]; 10 µM PD98059 with 0-30 µM 4-HPR, 48 h, Fig. 6F
  inhibition of cytotoxicity caused by 4-HPR: failed to inhibit
hiPSO-derived IECs [1]; 10 µM PD98059 with 0-30 µM ABT-737, 48 h, Fig. 6E
  inhibition of cytotoxicity caused by ABT-737: failed to inhibit
hiPSO-derived IECs [1]; 10 µM PD98059 with 0-30 µM N-oleoyldopamine, 48 h, Fig. 6H
  inhibition of cytotoxicity caused by N-oleoyldopamine: failed to inhibit
hiPSO-derived IECs [1]; 10 µM PD98059 with 0-30 µM ivermectin, 48 h, Fig. 6G
  inhibition of cytotoxicity caused by ivermectin: failed to inhibit
hiPSO-derived IECs [1]; 10 µM PD98059 with 1 µM YC-1, 48 h, Figure S5
  inhibition of YC-1-induced cytotoxicity in IECs from hiPSOs expanded with Matrigel: inhibited
hiPSO-derived IECs [1]
  effect of kinase inhibitor on dose-dependent cytotoxicity induced by YC-1: substantially prevented

## COC(=O)c1ccc(O)c(NC(=O)COc2ccc(C34CC5CC(CC(C5)C3)C4)cc2)c1 [LW6]
hiPSO-derived IECs [1]; 48 h
  toxicity against IECs (cell viability): little toxicity

## CN(C)CC[C@H](CSc1ccccc1)Nc1ccc(S(=O)(=O)NC(=O)c2ccc(N3CCN(Cc4ccccc4-c4ccc(Cl)cc4)CC3)cc2)cc1[N+](=O)[O-] [ABT-737]
hiPSO-derived IECs [1]
  IEC-selective dose-dependent cytotoxicity: identified

## CCc1c2c(nc3ccc(O)cc13)-c1cc3c(c(=O)n1C2)COC(=O)[C@]3(O)CC [SN-38]
hiPSO-derived IECs [2]
  cytotoxic effect (cell viability): confirmed
hPIO-derived IECs
  cytotoxic effect (cell viability): confirmed

Source: publication PMC10070462, “Drug cytotoxicity screening using human intestinal organoids propagated with extensive cost-reduction strategies” (Scientific Reports, 2023)
